According to US4120896A, “S-Phenenyltris(sulfonylimino)tri-anionic substituted benzene dicarboxylic acids and substituted alkyl amino acids and their salts” (America Cyanamid Company, priority 1977, dated 1978):
“And” between values parts separate entries of the source, which are not always exact repeats. Equal values may be shown once. Where a name gives a salt, the structure may show the parent alone. Read-outs that look alike come from different tables or passages of the source.

Assays:
[1] = tested on: citrated sheep plasma; experiment: In vitro anti-coagulant activity (AC): clotting of recalcified citrated sheep plasma with sheep RBC; format: biochemical; details: for AC Wells: Table I, two-fold serial dilution, higher well number indicates higher activity, sodium heparin positive control; for Anti-coagulant Activity (Wells) AC: Table II, in vitro
Experimental: The sheep RBC's, kept in suspension throughout the clotting incubation time, become enmeshed in the fibrin matrix if a clot forms. Upon centrifugation of the plate, untrapped RBC's form buttons, the sizes of which correspond to the degree of clot inhibition; this providing a measure of anti-coagulant activity (AC). Sodium heparin is used as a positive control and activity is reported in wells appearing in Table 1.
(§1) **Activity in wells a serial dilution assay. Higher well number indicates
(§2) higher activity. The serial dilutions are two -fold.

[2] = tested on: hereditary angioneurotic edema; details: literature report, New England J. Med. 286, 808-812 (1972); cited from earlier work
[3] = tested on: complement system; details: literature report; cited from earlier work
[4] = tested on: human serum total hemolytic complement; details: in vitro and in vivo, Pathologie Biologie 25, 33-36 (1977); cited from earlier work
[5] = tested on: anti-complement and anti-coagulant activities; experiment: Intrinsic Therapeutic Index: separation of anti-complement (Code 026) and anti-coagulant (AC) activities; details: for Intrinsic Therapeutic Index: antilogarithm (base 2) of the difference in wells; for Logarithmic Difference Expressed As Wells: log base 2 difference, Code 026 minus AC
Source text: The computation of an Intrinsic Therapeutic Index (ITI) was devised to correlate the results expressed in wells, obtained in the in vitro Code 026 (C1 inhibitor) test and the in vitro anti-coagulant (AC) test into a meaningful value which would aid in the net evaluation of the activity of the compounds of this invention.
The ITI is thus a measure of the separation of anti-complement and anti-coagulant activities; the higher the numerical value the more therapeutically useful the separation of activities.

[6] = tested on: whole complement; experiment: In vivo activity: whole complement level of serum of dosed guinea pigs, capillary tube assay; details: guinea pig; for % Inhibition, Intraperitoneal, 30 min / % Inhibition, Intraperitoneal, 60 min / % Inhibition, Intraperitoneal, 120 min: 200 mg/kg i.p., 200 mg/kg; for inhibition at 200 mg/kg: Cavia porcellus, iv, 200 mg/kg i.v.
Source text: (§3) An active inhibitor protects C2 from C1 and C4; (ii) Test, Code 035 (C3-C9 inhibitor) - This test determines the ability of the late components of human complement (C3-C9) to lyse EAC 142 in the presence of appropriate dilutions of the test compound. An active inhibitor protects EAC 142 from lysis by human C3-C9; (iii) Test, Code 036 (C-Shunt inhibitor) - In this test human erythrocytes rendered fragile are lysed in autologous serum via the shunt pathway activated by cobra venom factor in the presence of appropriate dilutions of the test compound. Inhibition of the shunt pathway results in failure of lysis; (iv) Forssman Vasculitis Test - Here, the well known complement dependent lesion, Forssman vasculitis, is produced in guinea pigs by intradermal injection of rabbit anti-Forssman antiserum. The lesion is measured in terms of diameter, edema and hemorrhage and the extent to which a combined index of these is inhibited by prior intraperitoneal injection of the test compound at 200 mg/kg is then reported, unless otherwise stated; (v) Forssman Shock Test - Lethal shock is produced in guinea pigs by an i.v. injection of anti-Forssman antiserum and the harmonic mean death time of treated guinea pigs is compared with that of simultaneous controls; (vi) Complement Level Reduction Test -- In this test, the above dosed guinea pigs, or others, are bled for serum and the complement level is determined in undiluted serum by the capillary tube method of U.S. Pat. No. 3,876,376 and compared to undosed control guinea pigs; and (vii) Cap 50 Test -- Here, appropriate amounts of the test compound are added to a pool of guinea pig serum in vitro, after which the undiluted serum capillary tube assay referred to above is run. The concentration of compound inhibiting 50% is reported.
With reference to Table I, guinea pigs weighing about 300 g were dosed intravenously (i.v.) or intraperitoneally (i.p.) with 200 mg/kg of the test compound dissolved in saline and adjusted to pH 7-8. […] The serum was tested for whole complement using the capillary tube assay. Percent inhibition was calculated by comparison with simultaneous controls. The results appear in Table I together with results of tests, code 026, 035, 036, Cap 50, % inhibition and Forssman shock.

[7] = target: activated human C1 (Homo sapiens, UniProt P09871); experiment: Code 026 (C1 inhibitor) test: ability of activated human C1 to destroy fluid phase human C2 in presence of C4; format: biochemical; details: for C1 026 Wells: Table I, two-fold serial dilution, higher well number indicates higher activity; for Complement Inhibiting Activity (Wells) Code 026: Table II, in vitro
Source text: as §3, §1, §2

[8] = tested on: shunt pathway; experiment: Code 036 (C-Shunt inhibitor) test: lysis of fragile human erythrocytes in autologous serum via shunt pathway activated by cobra venom factor; format: cell-based; details: Table I; two-fold serial dilution, higher well number indicates higher activity
Source text: An active inhibitor protects C2 from C1 and C4; (ii) Test, Code 035 (C3-C9 inhibitor) - This test determines the ability of the late components of human complement (C3-C9) to lyse EAC 142 in the presence of appropriate dilutions of the test compound. An active inhibitor protects EAC 142 from lysis by human C3-C9; (iii) Test, Code 036 (C-Shunt inhibitor) - In this test human erythrocytes rendered fragile are lysed in autologous serum via the shunt pathway activated by cobra venom factor in the presence of appropriate dilutions of the test compound. Inhibition of the shunt pathway results in failure of lysis; (iv) Forssman Vasculitis Test - Here, the well known complement dependent lesion, Forssman vasculitis, is produced in guinea pigs by intradermal injection of rabbit anti-Forssman antiserum. […]

## COC(=O)c1cc(NS(=O)(=O)c2cc(S(=O)(=O)Nc3ccc(O)c(C(=O)OC)c3)cc(S(=O)(=O)Nc3ccc(O)c(C(=O)OC)c3)c2)ccc1O [5,5',5"-[s-Phenenyltris(sulfonylimino)]trisalicyclic acid trimethyl ester]
[1]
  AC Wells: ≤ +1 Wells

## NC[C@H]1CC[C@H](C(=O)O)CC1 [tranexamic acid]
[2]
  success in treatment of hereditary angioneurotic edema: used with success

## Cc1ccc(C(=O)Nc2ccc(S(=O)(=O)O)c3cc(S(=O)(=O)O)cc(S(=O)(=O)O)c23)cc1NC(=O)c1cccc(NC(=O)Nc2cccc(C(=O)Nc3cc(C(=O)Nc4ccc(S(=O)(=O)O)c5cc(S(=O)(=O)O)cc(S(=O)(=O)O)c45)ccc3C)c2)c1 [Suramin]
[3]
  anticomplementary effect / complement inhibition: competitive inhibitor of the complement system
[2]
  success in treatment of hereditary angioneurotic edema: used with success

## pentosan-poly-sulfoester
[4]
  anticomplementary activity, reduction in total hemolytic complement activity: anticomplementary activity on human serum both in vitro and in vivo

## NCCCCCC(=O)O [epsilon-aminocaproic acid]
[2]
  success in treatment of hereditary angioneurotic edema: used with success

## O=C(O)c1cc(NS(=O)(=O)c2cc(S(=O)(=O)Nc3cc(C(=O)O)cc(C(=O)O)c3)cc(S(=O)(=O)Nc3cc(C(=O)O)cc(C(=O)O)c3)c2)cc(C(=O)O)c1 [5,5',5"-[s-Phenenyltris(sulfonylimino)]tri-isophthalic acid] [listing 1 of 2 here]
[5]
  Intrinsic Therapeutic Index: 512 and 256
[6]; 30 mins.
  % Inhibition, Intraperitoneal, 30 min: -74%
[6]
  % Inhibition, Intraperitoneal, 60 min: -74%
[6]; 120 mins.
  % Inhibition, Intraperitoneal, 120 min: -74%

## O=C(O)c1cc(NS(=O)(=O)c2cc(S(=O)(=O)Nc3ccc(O)c(C(=O)O)c3)cc(S(=O)(=O)Nc3ccc(O)c(C(=O)O)c3)c2)ccc1O [5,5',5"-[s-Phenenyltris(sulfonylimino)]trisalicylic acid]
[1]
  AC Wells: -2 Wells

## COC(=O)c1cc(NS(=O)(=O)c2cc(S(=O)(=O)Nc3cc(C(=O)OC)c(O)c(C(=O)OC)c3)cc(S(=O)(=O)Nc3cc(C(=O)OC)c(O)c(C(=O)OC)c3)c2)cc(C(=O)OC)c1O [5,5',5"-[s-Phenenyltris(sulfonylimino)]tri-2-hydroxy isophthalic acid hexamethyl ester]
[1]
  AC Wells: -1 Wells

## heparin
[3]
  anticomplementary effect / complement inhibition: anticomplementary effect

## COCCOC(=O)c1cc(NS(=O)(=O)c2cc(S(=O)(=O)Nc3cc(C(=O)OCCOC)cc(C(=O)OCCOC)c3)cc(S(=O)(=O)Nc3cc(C(=O)OCCOC)cc(C(=O)OCCOC)c3)c2)cc(C(=O)OCCOC)c1 [5,5',5"-[s-Phenenyltris(sulfonylimino)]tri-isophthalic acid hexakis(2-methoxyethyl)ester]
[1]
  AC Wells: < 0 Wells

## Nc1ccc2cc(S(=O)(=O)O)cc(O)c2c1N=Nc1ccc(NC(=O)Nc2ccc(N=Nc3c(N)ccc4cc(S(=O)(=O)O)cc(O)c34)c(S(=O)(=O)O)c2)cc1S(=O)(=O)O [chlorazol fast pink, 3,3'-ureylenebis-[6-(2-amino-8-hydroxy-6-sulfo-1-naphthylazo)]benzenesulfonic acid, tetrasodium salt]
[3]
  anticomplementary effect / complement inhibition: anticomplementary effect

## O=C(O)c1cc(NS(=O)(=O)c2cc(S(=O)(=O)Nc3cc(C(=O)O)cc(C(=O)O)c3)cc(S(=O)(=O)Nc3cc(C(=O)O)cc(C(=O)O)c3)c2)cc(C(=O)O)c1 [5,5',5"-[s-Phenenyltris(sulfonylimino)]tri-isophthalic acid] [listing 2 of 2 here]
[6]; 2 min, 2 mins., read-out: % Inhibition, Intravenous, 2 min
  inhibition at 200 mg/kg: -88%
[6]; 0.5 h, 30 mins., read-out: % Inhibition, Intravenous, 30 min
  inhibition at 200 mg/kg: -66%
[6]; 2 h, 120 mins., read-out: % Inhibition, Intravenous, 120 min
  inhibition at 200 mg/kg: -53%

## O=C(O)c1cc(NS(=O)(=O)c2cc(S(=O)(=O)Nc3cc(C(=O)O)c(O)c(C(=O)O)c3)cc(S(=O)(=O)Nc3cc(C(=O)O)c(O)c(C(=O)O)c3)c2)cc(C(=O)O)c1O [5,5',5"-[s-Phenenyltris(sulfonylimino)]tri-2-hydroxy-isophthalic acid]
[5]
  Intrinsic Therapeutic Index: 128
  Logarithmic Difference Expressed As Wells: +7 Wells
[7]
  C1 026 Wells: +6 Wells
  Complement Inhibiting Activity (Wells) Code 026: +6 Wells
[1]
  AC Wells: -1 Wells
  Anti-coagulant Activity (Wells) AC: -1 Wells
[8]
  Shunt Inhibition 036 Wells: +1 Wells

## O=C(O)c1cc(NS(=O)(=O)c2cc(S(=O)(=O)Nc3cc(C(=O)O)cc(C(=O)O)c3)cc(S(=O)(=O)Nc3cc(C(=O)O)cc(C(=O)O)c3)c2)cc(C(=O)O)c1 [5,5',5"-[s-Phenenyltris(sulfonylimino)]tri-isophthalic acid ] [5,5',5"-[s-Phenenyltris(sulfonylimino)]tri-isophthalic acid hexasodium salt, trisodium derivative compound with ethyl alcohol (2:5)]
[5]
  Intrinsic Therapeutic Index: 64
  Logarithmic Difference Expressed As Wells: +6 Wells
[6]; 30 mins.
  % Inhibition, Intraperitoneal, 30 min: -62%
[6]
  % Inhibition, Intraperitoneal, 60 min: -53%
[6]; 120 mins.
  % Inhibition, Intraperitoneal, 120 min: -49%
[7]
  C1 026 Wells: +5 Wells
  Complement Inhibiting Activity (Wells) Code 026: +5 Wells
[1]
  AC Wells: -1 Wells
  Anti-coagulant Activity (Wells) AC: -1 Wells
